In PubChem BioAssay AID330 (DTP/NCI, 2004):
“And” between values parts separate entries of the source, which are not always exact repeats. Identical values can stand only once. Toxic doses and inconclusive results are not listed. The calls were made as follows: active = survival T/C of 150% or more; inactive = T/C below 125% in these data.

Test system: P388 leukemia ip, CD2F1 mice, survival T/C
Test: NCI In Vivo Anticancer Drug Screen. Data for tumor model P388 Leukemia (intraperitoneal) in CD2F1 (CDF1) mice
Conditions: endpoint: median survival time, higher = longer survival
In short: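 Mice carrying the transplanted tumor received test compound or vehicle. Survival was recorded in each group, and the value is the treated-group measurement divided by that of the vehicle-treated control group.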

[1] = dose: 50.0 mg/kg/injection, schedule: Q01DX009 (ip), vehicle: saline
[2] = dose: 100.0 mg/kg/injection, schedule: Q01DX009 (ip), vehicle: saline
[3] = dose: 200.0 mg/kg/injection, schedule: Q01DX009 (ip), vehicle: saline

Measured: T/C

CN(C)P(=O)(N(C)C)N(C)CO
inactive: [1] 98 % of control and 100 % of control | [2] 104 % of control and 110 % of control | [3] 121 % of control and 122 % of control | dose: 400.0 mg/kg/injection, schedule: Q01DX009 (ip), vehicle: saline 86 % of control

[O-]c1nc(C(F)(F)F)nc(C(F)(F)F)c1-[n+]1ccccc1
inactive: dose: 60.0 mg/kg/injection, schedule: Q01DX005 (ip), vehicle: Klucel (hydroxypropylcellulose) (HPC) 108 % of control | dose: 120.0 mg/kg/injection, schedule: Q01DX005 (ip), vehicle: Klucel (hydroxypropylcellulose) (HPC) 104 % of control | dose: 240.0 mg/kg/injection, schedule: Q01DX005 (ip), vehicle: Klucel (hydroxypropylcellulose) (HPC) 96 % of control

CN(Cc1ccccc1)N=NCc1ccccc1
inactive: dose: 12.5 mg/kg/injection, schedule: Q01DX005 (ip), vehicle: saline with Tween-80 103 % of control | dose: 25.0 mg/kg/injection, schedule: Q01DX005 (ip), vehicle: saline with Tween-80 115 % of control
active: dose: 50.0 mg/kg/injection, schedule: Q01DX005 (ip), vehicle: saline with Tween-80 154 % of control

NNC(=O)c1ccc(NC(=O)CSc2nc3ccccc3s2)cc1
inactive: dose: 12.5 mg/kg/injection, schedule: Q01DX009 (ip), vehicle: Klucel (hydroxypropylcellulose) (HPC) 99 % of control | dose: 25.0 mg/kg/injection, schedule: Q01DX009 (ip), vehicle: Klucel (hydroxypropylcellulose) (HPC) 102 % of control | dose: 50.0 mg/kg/injection, schedule: Q01DX009 (ip), vehicle: Klucel (hydroxypropylcellulose) (HPC) 101 % of control

NNC1=Nc2cc3c(cc2C(=O)N2C[C@H](O)CC12)OCO3 (stereo not given in full)
inactive: dose: 100.0 mg/kg/injection, schedule: Q01DX001 (ip), vehicle: saline with Tween-80 100 % of control | dose: 200.0 mg/kg/injection, schedule: Q01DX001 (ip), vehicle: saline with Tween-80 100 % of control | dose: 400.0 mg/kg/injection, schedule: Q01DX001 (ip), vehicle: saline with Tween-80 99 % of control

N#CC(C#N)=Cc1ccc(N2CCCCC2)cc1
inactive: [1] 87 % of control | [2] 88 % of control | [3] 100 % of control

CC(=O)[C@]1(O)Cc2c(O)c3c(c(O)c2[C@@H](OC2CC(NC(=O)C(F)(F)F)C(O)C(C)O2)C1)C(=O)c1c(O)cccc1C3=O (stereo not given in full)
active: dose: 200.0 mg/kg/injection, schedule: Q04DX003 (ip), vehicle: water 214 % of control
inactive: dose: 12.5 mg/kg/injection, schedule: Q04DX003 (ip), vehicle: water 96 % of control | dose: 25.0 mg/kg/injection, schedule: Q04DX003 (ip), vehicle: water 118 % of control | dose: 100.0 mg/kg/injection, schedule: Q04DX003 (ip), vehicle: water 118 % of control

[Cl][Pt+2][Cl].[NH-]c1ccc(S(=O)(=O)O)cc1[NH-]
inactive: dose: 6.25 mg/kg/injection, schedule: Q04DX002 (ip), vehicle: saline with Tween-80 102 % of control | dose: 12.5 mg/kg/injection, schedule: Q04DX002 (ip), vehicle: saline with Tween-80 111 % of control | dose: 25.0 mg/kg/injection, schedule: Q04DX002 (ip), vehicle: saline with Tween-80 119 % of control | dose: 50.0 mg/kg/injection, schedule: Q04DX002 (ip), vehicle: saline with Tween-80 124 % of control

NS(=O)(=O)c1cc([N+](=O)[O-])ccc1Cl
inactive: dose: 50.0 mg/kg/injection, schedule: Q01DX009 (ip), vehicle: saline with Tween-80 100 % of control | dose: 100.0 mg/kg/injection, schedule: Q01DX009 (ip), vehicle: saline with Tween-80 100 % of control | dose: 200.0 mg/kg/injection, schedule: Q01DX009 (ip), vehicle: saline with Tween-80 94 % of control

CN(C)c1ccc(C=C2C(=O)OC(C)(C)OC2=O)cc1
inactive: dose: 50.0 mg/kg/injection, schedule: Q01DX005 (ip), vehicle: Klucel (hydroxypropylcellulose) (HPC) 114 % of control | dose: 100.0 mg/kg/injection, schedule: Q01DX005 (ip), vehicle: Klucel (hydroxypropylcellulose) (HPC) 105 % of control | dose: 200.0 mg/kg/injection, schedule: Q01DX005 (ip), vehicle: Klucel (hydroxypropylcellulose) (HPC) 114 % of control

COc1cc2c(c(O)c1OC)-c1ccc(OC)c(=O)cc1[C@@H](NC(C)=O)CC2
inactive: dose: 2.5 mg/kg/injection, schedule: Q01DX009 (ip), vehicle: Klucel (hydroxypropylcellulose) (HPC) 102 % of control | dose: 5.0 mg/kg/injection, schedule: Q01DX009 (ip), vehicle: Klucel (hydroxypropylcellulose) (HPC) 93 % of control | dose: 10.0 mg/kg/injection, schedule: Q01DX009 (ip), vehicle: Klucel (hydroxypropylcellulose) (HPC) 96 % of control | dose: 20.0 mg/kg/injection, schedule: Q01DX009 (ip), vehicle: Klucel (hydroxypropylcellulose) (HPC) 93 % of control | dose: 28.0 mg/kg/injection, schedule: Q01DX009 (ip), vehicle: Klucel (hydroxypropylcellulose) (HPC) 86 % of control | dose: 40.0 mg/kg/injection, schedule: Q01DX009 (ip), vehicle: Klucel (hydroxypropylcellulose) (HPC) 102 % of control | dose: 56.0 mg/kg/injection, schedule: Q01DX009 (ip), vehicle: Klucel (hydroxypropylcellulose) (HPC) 96 % of control
